Consider 5 compounds from patent US20230248814A1, “COMPOSITIONS AND METHODS FOR TREATING MERKEL CELL CARCINOMA (MCC) USING HLA CLASS I SPECIFIC EPITOPES” (The Broad Institute, Inc., priority 2020, published 2023).

Entries after “also recorded” stand apart in the source; their conditions may differ.

Assay [1] has as its system ovarian carcinoma patients. The note with it: poly-ICLC with NY-ESO-1 peptide vaccine and Montanide; cited from earlier work.
The subject of assay [2] is healthy human volunteers. The note with it: one single s.c. administration; 8 subjects vs 4 placebo; cited from earlier work.
Assay [3] has as its system MCC lines. Kind of assay: Flow cytometry for HLA-I surface expression in MCC lines after interferon treatment. It is filed as cell-based, human. Here is the method:
(§1) Flow cytometry. Cells were dissociated with Versene and incubated with 5 µL Human TruStain FcX (Fc Receptor Blocking Solution; Biolegend # 422302) per million cells in 100 µL at room temperature for 10 min. Fluorophore-conjugated antibodies or respective isotype controls were added and incubated for another 30 min at 4° C. Cells were then washed once with PBS and resuspended in PBS or 4% paraformaldehyde and analyzed on an LSR Fortessa cytometer. For HLA-I and HLA-II detection, the following antibodies were used: HLA-ABC (W6/32 clone) conjugated to PE (BioLegend # 311406), APC (BioLegend # 311410), or AF647 (Santa Cruz Biotechnology # sc32235 AF647), and HLA-DR-FITC (BioLegend # 307604).
(In general: In flow cytometry, cells or beads pass a laser one at a time.)

In assay [4] the test system is MCC-301 cell line. Kind of assay: Flow cytometry assessment of HLA-DR expression after IFN-γ. In kind it is cell-based, human. Here is the method:
as §1

Assay [5] has as its system MCC cell lines. The experiment in a line: HLA-I immunopeptidome (LC-MS/MS) of MCC cell lines at baseline and after IFN-γ. Conditions: for increase in abundance of class I bound peptides (median): IFN-γ stimulation. It is filed as cell-based, human. Here is the method: Immunoprecipitation and mass spectrometry analysis, and peptide identification. Up to 40 million or 0.2 g of MCC cells were immunoprecipitated. Briefly, MCC cells were harvested and lysed in ice-cold lysis buffer containing […] (pH 8.0), 1 mM EDTA (pH 8.0), 0.1 M sodium chloride, Triton X-100, 0.06 M octyl β-d-glucopyranoside, 100 U/mL DNAse I, 1 mM phenylmethanesulfonyl fluoride (all from Sigma Aldrich), and protease inhibitor cocktail (Roche Diagnostics). Cell lysate was centrifuged at 12,700 rpm at 4° C. for 22 min. Lysate supernatant was coupled with Gammabind Plus sepharose beads (GE Healthcare) and incubated with 10 µg of HLA-I antibody (Clone W6/32, Santa Cruz Biotechnologies) at 4° C. under rotary agitation for 3 h. After incubation, the lysate-bead-antibody mixture was briefly centrifuged and the supernatant was discarded. Beads were washed with lysis buffer, consisting of wash buffer containing 40 mM Tris (pH 8.0), 1 mM EDTA (pH 8.0), 0.1 M sodium chloride, 0.06 M octyl β-d-glucopyranoside, and 20 mM Tris buffer, without protease inhibitors. Gel loading tips (Fisherbrand) were used to remove as much fluid from beads as possible. Peptides of up to three immunoprecipitations were combined, acid eluted, and analyzed using LC/MS-MS as described previously (35, 82). Briefly, peptides were resuspended in 3% acetonitrile with 5% formic acid and loaded onto an analytical column (20-30 cm with 1.9 µm C18 Reprosil beads, Dr. Maisch HPLC GmbH);, packed in-house). Peptides were eluted in a 6-30% gradient (EasyLC 1000 or 1200, Thermo Fisher Scientific) and analyzed on a QExactive Plus, Fusion Lumos, or Orbitrap Exploris 480 (Thermo Fisher Scientific). For Lumos measurements, peptides were also subjected to fragmentation if they were singly charged. […] Fractions were analyzed on a Fusion Lumos or Orbitrap Exploris 480 equipped with a FAIMSpro interface (83).
Mass spectra were interpreted using Spectrum Mill software package v7.1 pre-Release (Broad Institute, Cambridge, MA). […] MS/MS spectra were searched against a protein sequence database that contained 90,904 entries, including all UCSC Genome Browser genes with hg19 annotation of the genome and its protein coding transcripts (52,788 entries), common human virus sequences (30,181 entries), recurrently mutated proteins observed in tumors from 26 tissues (4,595 entries), 264 common laboratory contaminants as well as protein sequences containing somatic mutations detected in MCC cell lines (3,076 entries). […]

For assay [6], the system named is MCC lines. The experiment in a line: RNA-seq of class I antigen presentation genes in MCC lines before and after IFN-γ. In kind it is cell-based, human. Conditions: IFN-γ treatment vs baseline. The protocol:
RNA sequencing and analysis. For samples from the MCC tumors and newly generated cell lines, RNA was first assessed for quality using the Agilent Bioanalyzer (DV200 metric). 100 ng of RNA were used as the input for first strand cDNA synthesis using Superscript III reverse transcriptase and Illumina’s TruSeq RNA Access Sample Prep Kit. Synthesis of the second strand of cDNA was followed by indexed adapter ligation with UMI (unique molecular index) adaptors. Subsequent PCR amplification enriched for adapted fragments. Amplified libraries were quantified, normalized, pooled, and hybridized with exome targeting oligos. Following hybridization, bead clean-up, elution, and PCR was performed to prepare library pools for sequencing on Illumina flowcell lanes. Transcriptomes were sequenced to a coverage of at least 50 million reads in pairs.
Gene counts were obtained from BAM files using featureCounts version 2.0.0 (74). Very lowly expressed genes with average count across samples less than 1 were excluded from analysis. […]
Differential expression analysis was carried out between IFN-γ plus and minus samples (adjusting for viral status as a covariate) using the negative binomial GLM Wald test of DESeq2, where significance was assessed using the p-values adjusted for multiple comparisons under default settings. […]

Assay [7] addresses USP7 (Homo sapiens, UniProt Q93009). The note with it: cited from earlier work.
For assay [8], the system named is advanced hormone refractory prostate cancer patients. Conditions: personalized vaccination combined with low dose estramustine; cited from earlier work.
For assay [9], the system named is PBMCs from patient MCC-367. Kind of assay: IFN-γ ELISpot with autologous PBMCs of patient MCC-367. It is filed as cell-based, human. The note with it: 10 ug/ml peptide. Here is the method:
ELISpot. Matching patient peripheral blood mononuclear cells (PBMCs) from patient MCC-367 were thawed, and 10^7 cells per well were seeded in 24 well plates overnight. Cells were stimulated with 10 ug/ml of the LT antigen peptide […] (SEQ ID NO:1) (identified in the MCC-367 HLA peptidome, FIG. 3F) in complete DMEM supplemented with 10% Human serum and 20 ng/ml IL-7 (PeproTech). After 3 days of stimulation, cells were supplemented with 20 units/mL IL-2 (PeproTech). After 10 days of stimulation, cells were cytokine deprived overnight. 50,000 cells per well were stimulated in an IFN- γ ELISpot assay with 10 ug/ml of the […] (SEQ ID NO:1) peptide. DMSO and an HIV-GAG peptide were used as negative controls. CEF (Mabtech) and PHA (Sigma Aldrich) were used as positive controls (not shown). ELISpot and T cell culture methods were described in detail previously (23, 86).

[10] abbreviates: IFN-γ, 8 IFN-γ-inducible MCC lines.

USP7, sequence (Q93009 whole entry): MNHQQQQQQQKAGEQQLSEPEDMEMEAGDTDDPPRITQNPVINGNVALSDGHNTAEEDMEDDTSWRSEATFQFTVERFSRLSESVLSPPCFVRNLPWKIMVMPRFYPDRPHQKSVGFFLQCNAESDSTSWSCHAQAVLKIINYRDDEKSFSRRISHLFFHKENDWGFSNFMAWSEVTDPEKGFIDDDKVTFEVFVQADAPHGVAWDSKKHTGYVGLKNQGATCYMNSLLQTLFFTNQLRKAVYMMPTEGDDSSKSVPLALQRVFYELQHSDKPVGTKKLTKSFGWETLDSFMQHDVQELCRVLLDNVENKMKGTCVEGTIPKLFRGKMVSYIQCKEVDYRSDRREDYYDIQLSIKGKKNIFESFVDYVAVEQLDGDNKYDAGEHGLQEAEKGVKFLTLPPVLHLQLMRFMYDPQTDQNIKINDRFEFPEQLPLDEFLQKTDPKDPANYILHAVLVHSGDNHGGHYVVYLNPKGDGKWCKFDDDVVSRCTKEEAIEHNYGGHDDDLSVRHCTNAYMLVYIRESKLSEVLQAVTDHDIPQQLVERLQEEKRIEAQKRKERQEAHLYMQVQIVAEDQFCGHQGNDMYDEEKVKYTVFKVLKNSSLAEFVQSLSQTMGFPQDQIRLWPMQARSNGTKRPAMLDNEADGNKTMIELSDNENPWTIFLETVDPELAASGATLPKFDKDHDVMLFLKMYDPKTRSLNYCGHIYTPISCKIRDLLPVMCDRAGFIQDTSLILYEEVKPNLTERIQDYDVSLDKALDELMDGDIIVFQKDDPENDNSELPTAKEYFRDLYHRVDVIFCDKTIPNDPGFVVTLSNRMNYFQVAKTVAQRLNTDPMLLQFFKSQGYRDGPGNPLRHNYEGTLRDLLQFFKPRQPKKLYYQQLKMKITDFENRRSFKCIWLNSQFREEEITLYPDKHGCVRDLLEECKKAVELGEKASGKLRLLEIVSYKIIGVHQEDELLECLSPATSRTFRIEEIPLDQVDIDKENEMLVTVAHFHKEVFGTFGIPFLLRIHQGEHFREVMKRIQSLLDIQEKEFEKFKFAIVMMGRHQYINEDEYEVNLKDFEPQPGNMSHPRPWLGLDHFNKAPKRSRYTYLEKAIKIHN

Take “Polyinosinic-Polycytidylic Acid-poly-L-lysine Carboxymethylcellulose [poly-ICLC]”: in [1], the “patients with induction of CD4+ and CD8+ T cell and antibody responses to the peptide” value is above 90%. Moreover, in [2], the “differentially expressed genes versus placebo” value is “up to 212 genes”.
As to IFN-γ: known inducer of HLA-I, the “HLA-I fold increase in MFI” value in [3] (IFN-γ exposure, MCC-336, -350, -358) was at most 1.15 fold. For the same compound, in assay [3] (setting [10]), the “HLA I surface expression, fold increase by MFI (median)” value was 5.7 fold. Besides, the “HLA I surface expression, fold increase by MFI (range)” value in [3] (setting [10]) is 2.5 - 12.4 fold. In [3] (MCC-336, -350, -358), the “response of HLA I surface expression to IFN-γ exposure” value is “not responsive”. For the same compound, in [4], the HLA-DR expression result was “inducible HLA-DR expression; also recorded: upregulated HLA-DR expression”. Also, the “increase in abundance of class I bound peptides (median)” value in [5] (across 4 cell lines) came out at 25 fold; in assay [5] (across 7 cell lines, comparable input material), 12 fold. Further, the “change in frequencies of peptides mapping to each HLA allele” value in assay [5] (cell lines with vs without IFN-γ) is on record as “increase in HLA-B-presented peptides”. Further, the “class I gene expression (RNA-seq)” value in assay [6] was “markedly upregulated class I genes; also recorded: markedly upregulated class I gene transcripts”.
For `CN1CCN(CCC(=O)Nc2ccc3c(=O)n(CC4(O)CCN(C(=O)[C@H](CCCNC(=O)c5ccc6c(Cl)c7c(nc6c5)CCCC7)Cc5ccccc5)CC4)cnc3c2)CC1` [XL177B], in [7], the on-target activity entry is listed as “on-target activity at higher doses” and the “potency relative to XL177A (fold less potent)” value is reported as 500 fold.
Turning to `C[C@]12CC[C@@H]3c4ccc(OC(=O)N(CCCl)CCCl)cc4CC[C@H]3[C@@H]1CC[C@@H]2O` [estramustine], the “patients with >50% decrease in serum PSA” value in assay [8] is 54%.
Take TSDKAIELY: the “detection of the epitope in the HLA-I peptidome” value in [5] (MCC-367 line, baseline vs IFN-γ) was “detected only after IFN-γ treatment and not at baseline”. In assay [9], the “reactivity of autologous T cells (IFN-γ ELISpot)” value is reported as “confirmed reactivity”.
